Tests used:
[1] = system: HCV genotype 1b (Con1) replicon in HUH-7 cells; test: HCV replicon luciferase reporter assay, genotype 1b; type: cell-based; conditions: Hepatitis C virus, Huh-7, 72 h, HCV genotype 1b replicon luciferase, 3 days incubation, read-out: LE_1b (EC50, range)
Method in brief: (§1)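 Replicon inhibition for both genotypes was measured as Renilla luciferase signal (EnduRen, 7.5 μM final, 2 h) after 3-day, 37° C exposure of replicon-bearing HUH-7 cells in 4% FCS DMEM, 0.5% DMSO. The 1b construct carries S1179I; the 1a H77 construct carries P1496L and S2204I. Twenty-point, 3-fold dilutions were fitted four-parametrically for EC50, and CC50 was taken from multiplexed Cell Titer-Blue.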

[2] = system: HCV genotype 1a (H77 strain) replicon in HUH-7 cells; test: HCV replicon luciferase reporter assay, genotype 1a; type: cell-based; conditions: Hepatitis C virus, Huh-7, 72 h, HCV genotype 1a replicon luciferase, 3 days incubation, read-out: LE_1a (EC50, range)
Method in brief: as §1

COc1cc2cc(F)ccc2c(O[C@@H]2C[C@H]3C(=O)N[C@]4(C(=O)NS(=O)(=O)C5(CF)CC5)C[C@H]4/C=C\CC[C@@H](C)C[C@@H](C)[C@H](NC(=O)OC(C)(C)C(F)(F)F)C(=O)N3C2)n1 [Compound 3214, 1,1,1-trifluoro-2-methylpropan-2-yl((2R,6S,7R,9R,13aS,14aR,16aS,Z)-2-((6-fluoro-3-methoxyisoquinolin-1-yl)oxy)-14a-(((1-(fluoromethyl)cyclopropyl)sulfonyl)carbamoyl)-7,9-dimethyl-5,16-dioxo-1,2,3,5,6,7,8,9,10,11,13a,14,14a,15,16,16a-hexadecahydrocyclopropa[e]pyrrolo[1,2-a][1,4]diazacyclopentadecin-6-yl)carbamate] was tested, and the EC50 [1] was 0.1 to 0.5 nM and the EC50 [2] was 1.01 to 5 nM.

Work on CC[C@@H]1C[C@H](C)CC/C=C\[C@@H]2C[C@@]2(C(=O)NS(=O)(=O)C2(C)CC2)NC(=O)[C@@H]2C[C@@H](Oc3nc(OC)cc4cc(F)ccc34)CN2C(=O)[C@H]1NC(=O)OC(C)(C)C(C)(F)F [Compound 3216, 3,3-difluoro-2-methylbutan-2-yl((2R,6S,7R,9R,13aS,14aR,16aS,Z)-7-ethyl-2-((6-fluoro-3-methoxyisoquinolin-1-yl)oxy)-9-methyl-14a-(((1-methylcyclopropyl)sulfonyl)carbamoyl)-5,16-dioxo-1,2,3,5,6,7,8,9,10,11,13a,14,14a,15,16,16a-hexadecahydrocyclopropa[e]pyrrolo[1,2-a][1,4]diazacyclopentadecin-6-yl)carbamate] yielded an EC50 [1] of 0.1 to 0.5 nM and an EC50 [2] of 1.01 to 5 nM.

Molecule COc1cc2cc(F)ccc2c(O[C@@H]2C[C@H]3C(=O)N[C@]4(C(=O)NS(=O)(=O)C5(CF)CC5)C[C@H]4/C=C\CC[C@@H](C)C[C@@H](C)[C@H](NC(=O)OC(C)(C)C(C)(F)F)C(=O)N3C2)n1 [Compound 3218, 3,3-difluoro-2-methylbutan-2-yl((2R,6S,7R,9R,13aS,14aR,16aS,Z)-2-((6-fluoro-3-methoxyisoquinolin-1-yl)oxy)-14a-(((1-(fluoromethyl)cyclopropyl)sulfonyl)carbamoyl)-7,9-dimethyl-5,16-dioxo-1,2,3,5,6,7,8,9,10,11,13a,14,14a,15,16,16a-hexadecahydrocyclopropa[e]pyrrolo[1,2-a][1,4]diazacyclopentadecin-6-yl)carbamate] has an EC50 [1] of 0.1 to 0.5 nM and an EC50 [2] of 1.01 to 5 nM.

CC[C@@H]1C[C@H](C)CC/C=C\[C@@H]2C[C@@]2(C(=O)NS(=O)(=O)C2(C)CC2)NC(=O)[C@@H]2C[C@@H](Oc3nc(OC)cc4cc(F)ccc34)CN2C(=O)[C@H]1NC(=O)OC(C)(C)C(F)(F)F [Compound 3220, 1,1,1-trifluoro-2-methylpropan-2-yl((2R,6S,7R,9R,13aS,14aR,16aS,Z)-7-ethyl-2-((6-fluoro-3-methoxyisoquinolin-1-yl)oxy)-9-methyl-14a-(((1-methylcyclopropyl)sulfonyl)carbamoyl)-5,16-dioxo-1,2,3,5,6,7,8,9,10,11,13a,14,14a,15,16,16a-hexadecahydrocyclopropa[e]pyrrolo[1,2-a][1,4]diazacyclopentadecin-6-yl)carbamate] showed an EC50 [1] of 0.1 to 0.5 nM and an EC50 [2] of 1.01 to 5 nM.

In the case of CC[C@@H]1C[C@H](C)CC/C=C\[C@@H]2C[C@@]2(C(=O)NS(=O)(=O)C2(C)CC2)NC(=O)[C@@H]2C[C@@H](Oc3nccc4cc(OC)c(Cl)cc34)CN2C(=O)[C@H]1NC(=O)OC(C)(C)C(F)(F)F [Compound 3222, 1,1,1-trifluoro-2-methylpropan-2-yl((2R,6S,7R,9R,13aS,14aR,16aS,Z)-2-((7-chloro-6-methoxyisoquinolin-1-yl)oxy)-7-ethyl-9-methyl-14a-(((1-methylcyclopropyl)sulfonyl)carbamoyl)-5,16-dioxo-1,2,3,5,6,7,8,9,10,11,13a,14,14a,15,16,16a-hexadecahydrocyclopropa[e]pyrrolo[1,2-a][1,4]diazacyclopentadecin-6-yl)carbamate], the EC50 [1] is reported as 1.01 to 5 nM and the EC50 [2] is reported as 1.01 to 5 nM.

In the case of CC[C@@H]1C[C@H](C)CC/C=C\[C@@H]2C[C@@]2(C(=O)NS(=O)(=O)C2(C)CC2)NC(=O)[C@@H]2C[C@@H](Oc3nccc4cc(OC)c(Cl)cc34)CN2C(=O)[C@H]1NC(=O)OC(C)(C)C(C)(F)F [Compound 3224, 3,3-difluoro-2-methylbutan-2-yl((2R,6S,7R,9R,13aS,14aR,16aS,Z)-2-((7-chloro-6-methoxyisoquinolin-1-yl)oxy)-7-ethyl-9-methyl-14a-(((1-methylcyclopropyl)sulfonyl)carbamoyl)-5,16-dioxo-1,2,3,5,6,7,8,9,10,11,13a,14,14a,15,16,16a-hexadecahydrocyclopropa[e]pyrrolo[1,2-a][1,4]diazacyclopentadecin-6-yl)carbamate], the EC50 [1] is reported as 1.01 to 5 nM and the EC50 [2] is reported as 1.01 to 5 nM.

CC[C@@H]1C[C@H](C)CC/C=C\[C@@H]2C[C@@]2(C(=O)NS(=O)(=O)C2(C)CC2)NC(=O)[C@@H]2C[C@@H](Oc3nccc4cc(OC)c(Cl)cc34)CN2C(=O)[C@H]1NC(=O)OC(C)(C)C(F)F [Compound 3226, 1,1-difluoro-2-methylpropan-2-yl((2R,6S,7R,9R,13aS,14aR,16aS,Z)-2-((7-chloro-6-methoxyisoquinolin-1-yl)oxy)-7-ethyl-9-methyl-14a-(((1-methylcyclopropyl)sulfonyl)carbamoyl)-5,16-dioxo-1,2,3,5,6,7,8,9,10,11,13a,14,14a,15,16,16a-hexadecahydrocyclopropa[e]pyrrolo[1,2-a][1,4]diazacyclopentadecin-6-yl)carbamate] showed an EC50 [1] of 0.51 to 1 nM and an EC50 [2] of 1.01 to 5 nM.

CC[C@@H]1C[C@H](C)CC/C=C\[C@@H]2C[C@@]2(C(=O)NS(=O)(=O)C2CC2)NC(=O)[C@@H]2C[C@H](Oc3ncc(OC)c4ccc(F)cc34)CN2C(=O)[C@@H]1NC(=O)OC(C)(C)C [Compound 4001, tert-butyl tert-butyl (2R,6S,7R,9R,13aS,14aR,16aS,Z)-14a-(cyclopropylsulfonylcarbamoyl)-7-ethyl-2-(7-fluoro-4-methoxyisoquinolin-1-yloxy)-9-methyl-5,16-dioxo-1,2,3,5,6,7,8,9,10,11,13a,14,14a,15,16,16a-hexadecahydrocyclopropa[e]pyrrolo[1,2-a][1,4]diazacyclopentadecin-6-ylcarbamate] showed an EC50 [1] of less than 5.46 nM and an EC50 [2] of less than 5.46 nM.

CC[C@@H]1C[C@H](C)CC/C=C\[C@@H]2C[C@@]2(C(=O)NS(=O)(=O)C2CC2)NC(=O)[C@@H]2C[C@@H](Oc3ncc(OC)c4ccc(F)cc34)CN2C(=O)[C@H]1NC(=O)OC(C)(C)C(F)(F)F [Compound 4002, 1,1,1-trifluoro-2-methylpropan-2-yl (2R,6S,7R,9R,13aS,14aR,16aS,Z)-14a-(cyclopropylsulfonylcarbamoyl)-7-ethyl-2-(7-fluoro-4-methoxyisoquinolin-1-yloxy)-9-methyl-5,16-dioxo-1,2,3,5,6,7,8,9,10,11,13a,14,14a,15,16,16a-hexadecahydrocyclopropa[e]pyrrolo[1,2-a][1,4]diazacyclopentadecin-6-ylcarbamate] was tested, and the EC50 [1] was less than 5.46 nM and the EC50 [2] was less than 5.46 nM.

With CC[C@@H]1C[C@H](C)CC/C=C\[C@@H]2C[C@@]2(C(=O)NS(=O)(=O)C2CC2)NC(=O)[C@@H]2C[C@@H](Oc3nccc4cc(OC)c(F)cc34)CN2C(=O)[C@H]1NC(=O)OC(C)(C)C [Compound 4003, tert-butyl (2R,6S,7R,9R,13aS,14aR,16aS,Z)-14a-(cyclopropylsulfonylcarbamoyl)-7-ethyl-2-(7-fluoro-6-methoxyisoquinolin-1-yloxy)-9-methyl-5,16-dioxo-1,2,3,5,6,7,8,9,10,11,13a,14,14a,15,16,16a-hexadecahydrocyclopropa[e]pyrrolo[1,2-a][1,4]diazacyclopentadecin-6-ylcarbamate] the EC50 [1] was less than 5.46 nM and the EC50 [2] was less than 5.46 nM.

CC[C@@H]1C[C@H](C)CC/C=C\[C@@H]2C[C@@]2(C(=O)NS(=O)(=O)C2CC2)NC(=O)[C@@H]2C[C@@H](Oc3nccc4cc(OC)c(F)cc34)CN2C(=O)[C@H]1NC(=O)OC(C)(C)C(F)(F)F [Compound 4004, 1,1,1-trifluoro-2-methylpropan-2-yl (2R,6S,7R,9R,13aS,14aR,16aS,Z)-14a-(cyclopropylsulfonylcarbamoyl)-7-ethyl-2-(7-fluoro-6-methoxyisoquinolin-1-yloxy)-9-methyl-5,16-dioxo-1,2,3,5,6,7,8,9,10,11,13a,14,14a,15,16,16a-hexadecahydrocyclopropa[e]pyrrolo[1,2-a][1,4]diazacyclopentadecin-6-ylcarbamate] gave an EC50 [1] of less than 5.46 nM and an EC50 [2] of less than 5.46 nM.

CC[C@@H]1C[C@H](C)CC/C=C\[C@@H]2C[C@@]2(C(=O)NS(=O)(=O)C2CC2)NC(=O)[C@@H]2C[C@@H](Oc3nccc4cc(OC)ccc34)CN2C(=O)[C@H]1NC(=O)OC(C)(C)C [Compound 4005, tert-butyl (2R,6S,7R,9R,13aS,14aR,16aS,Z)-14a-(cyclopropylsulfonylcarbamoyl)-7-ethyl-2-(6-methoxyisoquinolin-1-yloxy)-9-methyl-5,16-dioxo-1,2,3,5,6,7,8,9,10,11,13a,14,14a,15,16,16a-hexadecahydrocyclopropa[e]pyrrolo[1,2-a][1,4]diazacyclopentadecin-6-ylcarbamate] was tested, and the EC50 [1] was less than 5.46 nM and the EC50 [2] was less than 5.46 nM.

Molecule CC[C@@H]1C[C@H](C)CC/C=C\[C@@H]2C[C@@]2(C(=O)NS(=O)(=O)C2CC2)NC(=O)[C@@H]2C[C@@H](Oc3nccc4cc(OC)ccc34)CN2C(=O)[C@H]1NC(=O)OC(C)(C)C(F)(F)F [Compound 4006, 1,1,1-trifluoro-2-methylpropan-2-yl (2R,6S,7R,9R,13aS,14aR,16aS,Z)-14a-(cyclopropylsulfonylcarbamoyl)-7-ethyl-2-(6-methoxyisoquinolin-1-yloxy)-9-methyl-5,16-dioxo-1,2,3,5,6,7,8,9,10,11,13a,14,14a,15,16,16a-hexadecahydrocyclopropa[e]pyrrolo[1,2-a][1,4]diazacyclopentadecin-6-ylcarbamate] has an EC50 [1] of less than 5.46 nM and an EC50 [2] of less than 5.46 nM.

— patent publication US9499550B2 (BRISTOL-MYERS SQUIBB COMPANY, priority 2012, dated 2016)
